From publication PMC5218480 (PLoS ONE, 2017)

Test system: MV-4-11 cells
Assay: Gene expression microarray analysis (Affymetrix PrimeView) and GSEA
Assay type: cell-based, human
Design: RFU PODN (11730768_x_at) / Fold change /veh PODN (11730768_x_at) / RFU LINC00158 (11744669_a_at) / Fold change /veh LINC00158 (11744669_a_at) / RFU DUSP10 (11751237_a_at) / Fold change /veh DUSP10 (11751237_a_at) / RFU ID3 (11757404_x_at) / Fold change /veh ID3 (11757404_x_at) / RFU PLEKHG5 (11737974_s_at) / Fold change /veh PLEKHG5 (11737974_s_at) / RFU LRRC4B (11730491_at) / Fold change /veh LRRC4B (11730491_at) / RFU GIMAP4 (11747438_a_at) / Fold change /veh GIMAP4 (11747438_a_at) / RFU KRT8 (11758183_x_at) / Fold change /veh KRT8 (11758183_x_at) / RFU CNN1 (11734310_a_at) / Fold change /veh CNN1 (11734310_a_at) / RFU VPS37D (11726825_at) / Fold change /veh VPS37D (11726825_at) / RFU C10orf10 (11716522_x_at) / Fold change /veh C10orf10 (11716522_x_at) / RFU KIR2DL2 /// KIR2DL4 /// KIR2DL5A /// KIR2DL5B /// KIR2DS1 /// KIR2DS2 /// KIR2DS3 /// KIR2DS4 /// KIR3DL3 /// KIR3DL3 /// KIR3DS1 (11738374_at) / Fold change /veh KIR2DL2 /// KIR2DL4 /// KIR2DL5A /// KIR2DL5B /// KIR2DS1 /// KIR2DS2 /// KIR2DS3 /// KIR2DS4 /// KIR3DL3 /// KIR3DL3 /// KIR3DS1 (11738374_at) / RFU C1QL1 (11718748_at) / Fold change /veh C1QL1 (11718748_at) / RFU TMPRSS4 (11747572_a_at) / Fold change /veh TMPRSS4 (11747572_a_at) / RFU HAMP (11756126_x_at) / Fold change /veh HAMP (11756126_x_at) / RFU RNFT2 (11725882_a_at) / Fold change /veh RNFT2 (11725882_a_at) / RFU NR4A2 (11747474_a_at) / Fold change /veh NR4A2 (11747474_a_at) / RFU ABCC12 (11746883_a_at) / Fold change /veh ABCC12 (11746883_a_at) / RFU TMEM136 (11760407_x_at) / Fold change /veh TMEM136 (11760407_x_at) / RFU CLDN22 /// WWC2 (11732394_at) / Fold change /veh CLDN22 /// WWC2 (11732394_at) / RFU HLA-DPB1 (11760878_x_at) / Fold change /veh HLA-DPB1 (11760878_x_at) / RFU SPINT1 (11716480_a_at) / Fold change /veh SPINT1 (11716480_a_at) / RFU GAP43 (11754022_s_at) / Fold change /veh GAP43 (11754022_s_at) / RFU A4GNT (11735810_at) / Fold change /veh A4GNT (11735810_at) / RFU PRB3 (11715151_x_at) / Fold change /veh PRB3 (11715151_x_at) / RFU TUBB4B (11761932_at) / Fold change /veh TUBB4B (11761932_at) / RFU CAPN14 (11732068_a_at) / Fold change /veh CAPN14 (11732068_a_at) / RFU TMCC2 (11721928_a_at) / Fold change /veh TMCC2 (11721928_a_at) / RFU IRGQ (11745062_a_at) / Fold change /veh IRGQ (11745062_a_at) / RFU FAM174B (11720279_a_at) / Fold change /veh FAM174B (11720279_a_at) / RFU TMPRSS4 (11748680_a_at) / Fold change /veh TMPRSS4 (11748680_a_at) / RFU FAM212B (11763350_a_at) / Fold change /veh FAM212B (11763350_a_at) / RFU PLEKHG5 (11743358_a_at) / Fold change /veh PLEKHG5 (11743358_a_at) / RFU ZSCAN30 (11745921_a_at) / Fold change /veh ZSCAN30 (11745921_a_at) / RFU CMKLR1 (11741424_a_at) / Fold change /veh CMKLR1 (11741424_a_at) / RFU LOC101060620 /// MAPK8IP1 (11723275_at) / Fold change /veh LOC101060620 /// MAPK8IP1 (11723275_at) / RFU SPTSSB (11747773_x_at) / Fold change /veh SPTSSB (11747773_x_at) / RFU PRSS12 (11739890_at) / Fold change /veh PRSS12 (11739890_at) / RFU BIN1 (11741810_x_at) / Fold change /veh BIN1 (11741810_x_at) / RFU WNT11 (11732464_a_at) / Fold change /veh WNT11 (11732464_a_at) / RFU C10orf10 (11716521_a_at) / Fold change /veh C10orf10 (11716521_a_at) / RFU C5orf56 (11738089_at) / Fold change /veh C5orf56 (11738089_at) / RFU CYB561 (11721691_x_at) / Fold change /veh CYB561 (11721691_x_at) / RFU ANKRD19P (11752326_a_at) / Fold change /veh ANKRD19P (11752326_a_at) / RFU OR2T12 /// OR2T33 /// OR2T8 (11738714_s_at) / Fold change /veh OR2T12 /// OR2T33 /// OR2T8 (11738714_s_at) / RFU VCAN (11748164_a_at) / Fold change /veh VCAN (11748164_a_at) / RFU JSRP1 (11732532_at) / Fold change /veh JSRP1 (11732532_at) / RFU KRTAP10-11 (11738290_x_at) / Fold change /veh KRTAP10-11 (11738290_x_at) / RFU MYO3A (11730013_a_at) / Fold change /veh MYO3A (11730013_a_at) / RFU EBF3 (11725865_a_at) / Fold change /veh EBF3 (11725865_a_at) / RFU CAMK2N1 (11719241_x_at) / Fold change /veh CAMK2N1 (11719241_x_at) / RFU C5orf56 (11738088_a_at) / Fold change /veh C5orf56 (11738088_a_at) / RFU OLFML3 (11715873_a_at) / Fold change /veh OLFML3 (11715873_a_at) / RFU LOC100653217 /// NTM (11731650_a_at) / Fold change /veh LOC100653217 /// NTM (11731650_a_at) / RFU MAPK11 (11762145_a_at) / Fold change /veh MAPK11 (11762145_a_at) / RFU FIZ1 (11724087_x_at) / Fold change /veh FIZ1 (11724087_x_at) / RFU OASL (11726364_x_at) / Fold change /veh OASL (11726364_x_at) / RFU SOX15 (11748057_x_at) / Fold change /veh SOX15 (11748057_x_at) / RFU CD79A (11719716_a_at) / Fold change /veh CD79A (11719716_a_at) / RFU HIST1H1D (11736915_at) / Fold change /veh HIST1H1D (11736915_at) / RFU CASKIN2 (11723855_a_at) / Fold change /veh CASKIN2 (11723855_a_at) / RFU LOC730098 (11760151_x_at) / Fold change /veh LOC730098 (11760151_x_at) / RFU OR4N2 (11742367_at) / Fold change /veh OR4N2 (11742367_at) / RFU PRRT2 (11749266_a_at) / Fold change /veh PRRT2 (11749266_a_at) / RFU SNX32 (11753110_a_at) / Fold change /veh SNX32 (11753110_a_at) / RFU CDHR5 (11726645_a_at) / Fold change /veh CDHR5 (11726645_a_at) / RFU RCAN1 (11760418_a_at) / Fold change /veh RCAN1 (11760418_a_at) / RFU FAM167A (11723789_a_at) / Fold change /veh FAM167A (11723789_a_at) / RFU FAM26E (11764081_at) / Fold change /veh FAM26E (11764081_at) / RFU ISYNA1 (11749810_s_at) / Fold change /veh ISYNA1 (11749810_s_at) / RFU ACY1 (11761880_at) / Fold change /veh ACY1 (11761880_at) / RFU 11764098_at / Fold change /veh 11764098_at / RFU SAMD14 (11745864_x_at) / Fold change /veh SAMD14 (11745864_x_at) / RFU NPB (11741838_a_at) / Fold change /veh NPB (11741838_a_at) / RFU TMPRSS6 (11731388_a_at) / Fold change /veh TMPRSS6 (11731388_a_at) / RFU KRTAP10-2 (11738614_at) / Fold change /veh KRTAP10-2 (11738614_at) / RFU ARHGAP8 /// PRR5-ARHGAP8 (11727945_x_at) / Fold change /veh ARHGAP8 /// PRR5-ARHGAP8 (11727945_x_at) / RFU KRTAP5-7 /// NADSYN1 (11734609_at) / Fold change /veh KRTAP5-7 /// NADSYN1 (11734609_at) / RFU RASL12 (11751679_a_at) / Fold change /veh RASL12 (11751679_a_at) / RFU CDKN2B (11736163_a_at) / Fold change /veh CDKN2B (11736163_a_at) / RFU PRF1 (11729649_at) / Fold change /veh PRF1 (11729649_at) / RFU, ZNF638 /// ZNF638-IT1 / Fold change vs veh, ZNF638 /// ZNF638-IT1 / RFU, PANK3 / Fold change vs veh, PANK3 / RFU, SH3YL1 / Fold change vs veh, SH3YL1 / RFU, ZEB2 / Fold change vs veh, ZEB2 / RFU, NRIP1 / Fold change vs veh, NRIP1 / RFU, PTTG1IP / Fold change vs veh, PTTG1IP / RFU, CAPN2 / Fold change vs veh, CAPN2 / RFU, MED14 / Fold change vs veh, MED14 / RFU, SNORA58 / Fold change vs veh, SNORA58 / RFU, C1orf63 / Fold change vs veh, C1orf63 / RFU, LRRFIP1 / Fold change vs veh, LRRFIP1 / RFU, NDUFAF7 / Fold change vs veh, NDUFAF7 / RFU, SLC12A2 / Fold change vs veh, SLC12A2 / RFU, IBTK / Fold change vs veh, IBTK / RFU, ESF1 / Fold change vs veh, ESF1 / Fold change vs veh, TMEM50B / RFU, TAOK1 / Fold change vs veh, TAOK1 / RFU, ACBD3 / Fold change vs veh, ACBD3 / RFU, TMA16 / Fold change vs veh, TMA16 / RFU, RWDD3 / Fold change vs veh, RWDD3 / RFU, BCAT1 / Fold change vs veh, BCAT1 / RFU, EDEM3 / Fold change vs veh, EDEM3 / RFU, TMEM33 / Fold change vs veh, TMEM33 / RFU, WDR75 / Fold change vs veh, WDR75 / RFU, AHCTF1 / Fold change vs veh, AHCTF1 / RFU, TFRC / Fold change vs veh, TFRC / RFU, ZDHHC17 / Fold change vs veh, ZDHHC17 / RFU, NOM1 / Fold change vs veh, NOM1 / RFU, ARL8B / Fold change vs veh, ARL8B / RFU, ZBTB11 / Fold change vs veh, ZBTB11 / RFU, TAMM41 / Fold change vs veh, TAMM41 / RFU, KIAA1704 /// LOC100996395 / Fold change vs veh, KIAA1704 /// LOC100996395 / RFU, ING1 / Fold change vs veh, ING1 / RFU, TRMT61B / Fold change vs veh, TRMT61B / RFU, FUBP3 / Fold change vs veh, FUBP3 / RFU, TP53 / Fold change vs veh, TP53 / RFU, TNKS2 / Fold change vs veh, TNKS2 / RFU, ZFP14 / Fold change vs veh, ZFP14 / RFU, ACTR2 / Fold change vs veh, ACTR2 / RFU, PPP3R1 / Fold change vs veh, PPP3R1 / RFU, PIK3R1 / Fold change vs veh, PIK3R1 / RFU, HNRNPA1 / Fold change vs veh, HNRNPA1 / RFU, RNF170 / Fold change vs veh, RNF170 / RFU, ZNF28 / Fold change vs veh, ZNF28 / RFU, RNGTT / Fold change vs veh, RNGTT / RFU, OGT / Fold change vs veh, OGT / RFU, BRD1 / Fold change vs veh, BRD1 / RFU, MARS / Fold change vs veh, MARS / RFU, ZNF655 / Fold change vs veh, ZNF655 / RFU, FAHD1 / Fold change vs veh, FAHD1 / RFU, BDP1 / Fold change vs veh, BDP1 / RFU, LRRCC1 / Fold change vs veh, LRRCC1 / RFU, ARID1A / Fold change vs veh, ARID1A / RFU, ZNF146 / Fold change vs veh, ZNF146 / RFU, ZNF330 / Fold change vs veh, ZNF330 / RFU, GPN3 / Fold change vs veh, GPN3 / RFU, C9orf123 / Fold change vs veh, C9orf123 / RFU, N4BP2L2 / Fold change vs veh, N4BP2L2 / RFU, ARFIP1 / Fold change vs veh, ARFIP1 / RFU, FAM179B / Fold change vs veh, FAM179B / RFU, BCL10 / Fold change vs veh, BCL10 / RFU, UHRF1BP1L / Fold change vs veh, UHRF1BP1L / RFU, BET1 / Fold change vs veh, BET1 / RFU, CNOT2 / Fold change vs veh, CNOT2 / RFU, ZNF268 / Fold change vs veh, ZNF268 / Fold change vs veh, ZNF507 / RFU, DGCR2 / Fold change vs veh, DGCR2 / RFU, WDSUB1 / Fold change vs veh, WDSUB1 / Fold change vs veh, HSP90B1 /// MIR3652 / RFU, ADSS / Fold change vs veh, ADSS / RFU, GK / Fold change vs veh, GK / RFU, ZNF148 / Fold change vs veh, ZNF148 / RFU, TAF9 / Fold change vs veh, TAF9 / RFU, SLC1A5 / Fold change vs veh, SLC1A5 / RFU, SLMO2 / Fold change vs veh, SLMO2 / RFU, ABCC4 / Fold change vs veh, ABCC4 / RFU, LOC101060439 /// RAP1B / Fold change vs veh, LOC101060439 /// RAP1B / RFU, RFX7 / Fold change vs veh, RFX7 / RFU, GTPBP10 / Fold change vs veh, GTPBP10 / RFU, CNEP1R1 / Fold change vs veh, CNEP1R1 / RFU, BIVM-ERCC5 /// ERCC5 / Fold change vs veh, BIVM-ERCC5 /// ERCC5 / RFU, ILF3 / Fold change vs veh, ILF3 / RFU 11762660_at / Fold change /veh 11762660_at / RFU VCAN (11757783_s_at) / Fold change /veh VCAN (11757783_s_at) / RFU DDX43 (11728927_at) / Fold change /veh DDX43 (11728927_at) / RFU KRT8 (11758188_x_at) / Fold change /veh KRT8 (11758188_x_at) / RFU NKD1 (11759106_at) / Fold change /veh NKD1 (11759106_at) / RFU SRD5A1 (11742802_a_at) / Fold change /veh SRD5A1 (11742802_a_at) / RFU TPSAB1 /// TPSB2 (11721975_s_at) / Fold change /veh TPSAB1 /// TPSB2 (11721975_s_at) / RFU GSTM3 (11746129_a_at) / Fold change /veh GSTM3 (11746129_a_at) / RFU IL23R (11737362_x_at) / Fold change /veh IL23R (11737362_x_at) / RFU TMEM51 (11727254_a_at) / Fold change /veh TMEM51 (11727254_a_at) / RFU PIWIL2 (11732686_x_at) / Fold change /veh PIWIL2 (11732686_x_at) / RFU ORM1 (11744905_x_at) / Fold change /veh ORM1 (11744905_x_at) / RFU CCDC152 (11743942_at) / Fold change /veh CCDC152 (11743942_at) / RFU ECM1 (11717891_a_at) / Fold change /veh ECM1 (11717891_a_at) / RFU IL23R (11748794_a_at) / Fold change /veh IL23R (11748794_a_at) / RFU TNFAIP8L3 (11732012_x_at) / Fold change /veh TNFAIP8L3 (11732012_x_at) / RFU MBOAT4 (11741988_at) / Fold change /veh MBOAT4 (11741988_at) / RFU 11764193_at / Fold change /veh 11764193_at / RFU TMEM53 (11763286_at) / Fold change /veh TMEM53 (11763286_at) / RFU MAGEB2 (11727129_at) / Fold change /veh MAGEB2 (11727129_at) / RFU TMEM200A (11744735_a_at) / Fold change /veh TMEM200A (11744735_a_at) / RFU CCDC152 (11751479_a_at) / Fold change /veh CCDC152 (11751479_a_at) / RFU FAM211A (11726209_a_at) / Fold change /veh FAM211A (11726209_a_at) / RFU RGS16 (11746705_a_at) / Fold change /veh RGS16 (11746705_a_at) / RFU VCAN (11755009_s_at) / Fold change /veh VCAN (11755009_s_at) / RFU RHOB (11743442_s_at) / Fold change /veh RHOB (11743442_s_at) / RFU RGS16 (11720943_a_at) / Fold change /veh RGS16 (11720943_a_at) / RFU RGS16 (11720944_at) / Fold change /veh RGS16 (11720944_at) / RFU, VPS4B / Fold change vs veh, VPS4B / RFU, CREB1 / Fold change vs veh, CREB1 / RFU, DNAJC13 / Fold change vs veh, DNAJC13 / RFU, GNAQ / Fold change vs veh, GNAQ / RFU, CDK5R1 / Fold change vs veh, CDK5R1 / RFU, ZRANB3 / Fold change vs veh, ZRANB3 / RFU, CUL4A / Fold change vs veh, CUL4A / RFU, CCNY / Fold change vs veh, CCNY / RFU, UFL1 / Fold change vs veh, UFL1 / RFU, COG3 / Fold change vs veh, COG3 / RFU, DIAPH2 / Fold change vs veh, DIAPH2 / RFU, SKA2 / Fold change vs veh, SKA2 / RFU, AFF3 / Fold change vs veh, AFF3 / RFU, LMF1 / Fold change vs veh, LMF1 / RFU, IPO11 / Fold change vs veh, IPO11 / RFU, DFFB / Fold change vs veh, DFFB / RFU, FOXP1 / Fold change vs veh, FOXP1 / RFU, CARD8 / Fold change vs veh, CARD8 / RFU, STRN3 / Fold change vs veh, STRN3 / RFU, ADK / Fold change vs veh, ADK / RFU, RASSF2 / Fold change vs veh, RASSF2 / RFU, WIPF1 / Fold change vs veh, WIPF1 / RFU, LARP1B / Fold change vs veh, LARP1B / RFU, RASA1 / Fold change vs veh, RASA1 / RFU, RB1 / Fold change vs veh, RB1 / RFU, PPFIA1 / Fold change vs veh, PPFIA1 / RFU, MAT2A / Fold change vs veh, MAT2A / RFU, CCT5 / Fold change vs veh, CCT5 / RFU, WDR92 / Fold change vs veh, WDR92 / RFU, CUX1 / Fold change vs veh, CUX1 / RFU, TTC7A / Fold change vs veh, TTC7A / RFU, TMEM135 / Fold change vs veh, TMEM135 / RFU, DEPTOR / Fold change vs veh, DEPTOR / RFU, CPM / Fold change vs veh, CPM / RFU, DNAJB6 / Fold change vs veh, DNAJB6 / RFU, CACNA2D3 / Fold change vs veh, CACNA2D3 / RFU, DTX4 / Fold change vs veh, DTX4 / RFU, TFCP2 / Fold change vs veh, TFCP2 / RFU, GMCL1 /// GMCL1P1 / Fold change vs veh, GMCL1 /// GMCL1P1 / RFU, AEBP2 / Fold change vs veh, AEBP2 / RFU, SNHG1 /// SNORD22 /// SNORD25 /// SNORD26 /// SNORD27 /// SNORD28 /// SNORD29 /// SNORD31 / Fold change vs veh, SNHG1 /// SNORD22 /// SNORD25 /// SNORD26 /// SNORD27 /// SNORD28 /// SNORD29 /// SNORD31 / Fold change (Aza/veh), C12orf56 (ProbeSet 11735607_a_at) / Fold change (ACY-1035/veh), C12orf56 (ProbeSet 11735607_a_at) / Fold change (Aza/veh), FGFR1OP (ProbeSet 11751329_s_at) / Fold change (ACY-1035/veh), FGFR1OP (ProbeSet 11751329_s_at) / Fold change (Aza/veh), VPS36 (ProbeSet 11739960_a_at) / Fold change (ACY-1035/veh), VPS36 (ProbeSet 11739960_a_at) / RFU SYPL1 (11715823_x_at) / Fold change /veh SYPL1 (11715823_x_at) / RFU IGFBP7 (11715501_s_at) / Fold change /veh IGFBP7 (11715501_s_at) / RFU REEP3 (11722064_at) / Fold change /veh REEP3 (11722064_at) / RFU IGLL1 (11728026_x_at) / Fold change /veh IGLL1 (11728026_x_at): dose or concentration left out as unconfirmed
Conditions: MV-4-11 cells, 48 hours

Nc1ncn([C@@H]2O[C@H](CO)[C@@H](O)[C@H]2O)c(=O)n1 [azacitidine]
Fold change /veh TMPRSS4 (11748680_a_at): 0.94
